Results: paper PMC10464297, “Reevaluation of bromodomain ligands targeting BAZ2A” (Protein Science : A Publication of the Protein Society, 2023)

Assays:
PCa cells = experiment: RT-qPCR of genes affected by BAZ2A genetic ablation; assay type: cell-based; conditions: 25 μM, 6 days, PC3 and 22Rv1
Protocol: (§1) equipped with a Leica DFC450C digital camera. The area of each spheroid was measured using ImageJ and the average area for each condition was calculated. The growth rate was analysed using the segmental linear regression algorithm of GraphPad Prism. The appropriateness of the model was evaluated by considering the R square values and the Replicates test (Suppl. Table 6).
Cells were counted and plated in 6 well (for RNA extraction) or 96 well (for growth curve) at a […]
and 4.5x10^3 cells/well for 22Rv1) and let attach overnight at 37°C, 5% CO2. […] The gene expression was analyzed after 6 days from the cells seeded in the 6 well, while the viability was analyzed in the same way as for the cells treated with the […]
Cells were previously counted and plated in 6 well at a fixed amount (60.000 cells/well for PC3; 135.000 cells/well for 22Rv1). The RNA was extracted using the phenol-chloroform method and its concentration was measured by Nano spectrophotometer. […]
Total protein content was extracted from cells transfected with siRNA B AZ2A or siRNA RLU C (negative control). […] Cells were lysed using RIPA buffer and protein concentration was determined by Bradford Reagent (Sigma-Aldrich), according to the manufacturer’s instructions. […]

PC3 spheroids = experiment: Spheroid growth (3D), PC3; assay type: cell-based
Protocol: Cell cultures, proliferation assay and spheroid gro wth […]
streptomycin and 2 m M L-glutamine. All cells were regularly tested for mycoplasma contamination. […]
Spheroids were obtained by plating PC3 and 22Rv1 cells in low -adhesion round bottom 96 -well […]
After seeding, the cells were centrifuged for 10 min at 1200 x g at 4°C. Spheroids were given 48 hours to form after seeding before adding the treatment or the carrier (0.1% DMSO). Medium supplemented with treatment/carrier was changed every 48 hours, for a total of 32 days for 22Rv1 and 16 days for PC3. Each spheroid was imaged in brightfield every day or every other day (after day 20), using a Leica DM IL microscope […]
as §1, with “6). […]” for “6).”

[1] = system: panel of receptors, channels and transporters; design: method as in https://www.thesgc.org/chemical-probes/BAZ2-ICR; conditions: ref https://www.thesgc.org/chemical-probes/BAZ2-ICR; cited from earlier work
TNBC cells = system: TNBC cells; design: method as in Bevill et al., [2019]; conditions: single agent; ref Bevill et al., [2019]; cited from earlier work
PCa cancer stem cells = system: PCa cancer stem cells; design: method as in Peña‐Hernández et al., [2021]; conditions: ref Peña‐Hernández et al., [2021]; cited from earlier work
[2] = system: heterogeneous PCa cell population; design: method as in Peña‐Hernández et al., [2021]; conditions: ref Peña‐Hernández et al., [2021]; cited from earlier work

With `Cn1cc(CCn2cnc(-c3cnn(C)c3)c2-c2ccc(C#N)cc2)cn1` [BAZ2‐ICR] as the compound, how does the “transcription of a set of genes affected by BAZ2A genetic ablation” value (PCa cells) read?
The value was “did not comparably alter the transcription”.

And the “effect on growth of PC3 spheroids” value (PC3 spheroids; 3D setting, GSK2801 25 μM, BAZ2‐ICR 25 μM, BI9564 20 μM)?
Its value is “did not significantly affect PC3 spheroids”.

And the “slope2 (segmental linear regression of spheroid growth)” value (PC3 spheroids; PC3 spheroids, 25 µM, after X0 = day 6)?
Its value is 77288.

What about the “slope1 (segmental linear regression of spheroid growth)” value (PC3 spheroids; PC3 spheroids, 25 µM, before X0 = day 6) of the same compound?
The value was 62282.

What about the “profile on panel of receptors, channels and transporters” value [1] of the same compound?
Its value is “clean”.

And the “effect on TNBC cells” value (TNBC cells)?
The value was “did not affect TNBC cells”.

What about the “efficacy on PCa cancer stem cells” value (PCa cancer stem cells) of the same compound?
The value was “effective on PCa cancer stem cells”.

What about the “proliferation of heterogeneous PCa cell population” value [2] of the same compound?
Its value is “does not affect the proliferation”.
